Source: patent US10800757B2, “Inhibitors of TRPC6” (Boehringer Ingelheim International GmbH, priority 2017, dated 2020)
Where a name gives a salt, the structure may show the parent alone.

Molecular target: TRPC6 (Homo sapiens (Human), UniProt Q9Y210)
Assay: High throughput screening assay: fluorescent calcium (Fluo4/AM) assay of TRPC6 channel activation by GSK1702934A in HEK293/TREx cells
Format: cell-based
Details: HEK293/TREx cells stably transfected with TRPC6; agonist GSK1702934A; 7 concentrations 20 μM to 0.027 μM, triplicate
Summary of the method: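 HEK293/TREx cells stably carrying a TRPC6 construct were induced with 1 μg/ml tetracycline, plated at ~35,000 cells/well in 384-well CellBind plates, and loaded with 0.5 μM Fluo4/AM in Ringer's with 1% Pluronic F-127. Compounds were added 2 minutes before 125 nM GSK1702934A in high-Ca2+ Ringer. Fluorescence was read on a Hamamatsu FDSS 6000, normalized to controls, and fitted for IC50 from triplicates.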

TRPC6, sequence (Q9Y210 whole entry, species assumed): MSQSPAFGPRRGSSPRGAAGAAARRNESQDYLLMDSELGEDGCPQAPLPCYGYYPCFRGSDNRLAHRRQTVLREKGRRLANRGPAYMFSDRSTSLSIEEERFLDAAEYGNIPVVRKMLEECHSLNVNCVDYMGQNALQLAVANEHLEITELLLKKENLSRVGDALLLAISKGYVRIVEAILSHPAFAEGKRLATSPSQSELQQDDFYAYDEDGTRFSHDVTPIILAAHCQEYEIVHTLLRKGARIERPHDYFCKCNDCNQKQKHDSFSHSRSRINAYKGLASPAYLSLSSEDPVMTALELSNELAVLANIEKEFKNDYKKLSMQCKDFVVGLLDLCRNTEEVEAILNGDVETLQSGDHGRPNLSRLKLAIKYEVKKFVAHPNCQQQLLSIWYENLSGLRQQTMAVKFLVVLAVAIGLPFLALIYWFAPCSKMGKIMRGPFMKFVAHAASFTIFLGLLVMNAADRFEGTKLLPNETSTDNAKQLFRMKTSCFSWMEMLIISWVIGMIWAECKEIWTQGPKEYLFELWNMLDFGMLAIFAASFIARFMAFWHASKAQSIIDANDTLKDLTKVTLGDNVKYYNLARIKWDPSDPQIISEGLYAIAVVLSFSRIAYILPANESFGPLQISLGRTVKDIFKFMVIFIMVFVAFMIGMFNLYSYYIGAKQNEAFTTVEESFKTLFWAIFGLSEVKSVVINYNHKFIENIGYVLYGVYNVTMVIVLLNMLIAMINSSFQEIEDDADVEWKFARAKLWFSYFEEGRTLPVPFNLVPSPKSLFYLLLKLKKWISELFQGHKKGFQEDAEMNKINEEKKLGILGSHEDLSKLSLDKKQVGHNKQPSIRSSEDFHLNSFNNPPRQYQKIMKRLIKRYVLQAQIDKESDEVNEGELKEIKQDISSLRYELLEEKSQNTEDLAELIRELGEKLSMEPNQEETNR

Row | SMILES | IC50
1 | CCCOc1cnc(C(=O)N2CCC(c3ccc(N)nn3)CC2)cc1OC [Compound 76, [4-(6-Amino-pyridazin-3-yl)-piperidin-1-yl]-(4-methoxy-5-propoxy-pyridin-2-yl)-methanone] | 1800 nM
2 | COc1cc(C(=O)N2CCC(c3cnc(N)cc3OC)CC2)ncc1O[C@H](C)C1CC1 [Compound 77, (6-Amino-4-methoxy-3′,4′,5′,6′-tetrahydro-2′H-[3,4′]bipyridinyl-1′-yl)-[5-((R)-1-cyclopropyl-ethoxy)-4-methoxy-pyridin-2-yl]-methanone] | 2200 nM
3 | COc1cc(C(=O)N2CCC(c3nnc(N)cc3C)CC2)ncc1OCC1CC1 [Compound 78, [4-(6-Amino-4-methyl-pyridazin-3-yl)-piperidin-1-yl]-(5-cyclopropylmethoxy-4-methoxy-pyridin-2-yl)-methanone] | 2800 nM
4 | COc1cc(C(=O)N2CCC(c3ccc(N)nn3)CC2)ncc1O[C@@H](C)C1CC1 [Compound 79, [4-(6-Amino-pyridazin-3-yl)-piperidin-1-yl]-[5-((S)-1-cyclopropyl-ethoxy)-4-methoxy-pyridin-2-yl]-methanone] | 3700 nM
5 | COc1cc(C(=O)N2CCC(c3ccc(N)nn3)CC2)ncc1Oc1ccc(OC(F)(F)F)cc1 [Compound 80, [4-(6-Amino-pyridazin-3-yl)-piperidin-1-yl]-[4-methoxy-5-(4-trifluoromethoxy-phenoxy)-pyridin-2-yl]-methanone] | < 27 nM
6 | COc1cc(C(=O)N2CCN(c3ccc(N)nc3)C[C@@H]2CO)ncc1Oc1ccccc1 [Compound 81, [(R)-4-(6-Amino-pyridin-3-yl)-2-hydroxymethyl-piperazin-1-yl]-(4-methoxy-5-phenoxy-pyridin-2-yl)-methanone] | 71 nM
7 | COc1ccc(Oc2cnc(C(=O)N3CCN(c4ccc(N)nc4)C[C@@H]3CO)cc2OC)cc1 [Compound 82, [(R)-4-(6-Amino-pyridin-3-yl)-2-hydroxymethyl-piperazin-1-yl]-[4-methoxy-5-(4-methoxy-phenoxy)-pyridin-2-yl]-methanone] | 180 nM
8 | CCOc1cc(C(=O)N2CCC(c3ccc(N)nn3)CC2)ncc1Oc1ccccc1 [Compound 83, [4-(6-Amino-pyridazin-3-yl)-piperidin-1-yl]-[5-(phenoxy)-4-ethoxy-pyridin-2-yl]-methanone] | 98 nM
9 | COc1cc(C(=O)N2CCC(c3cnc(N)cc3OC3CC3)CC2)ncc1Oc1ccccc1 [Compound 84, (6-Amino-4-cyclopropoxy-3′,4′,5′,6′-tetrahydro-2′H-[3,4′]bipyridinyl-1′-yl)-[5-(phenoxy)-4-methoxy-pyridin-2-yl]-methanone] | 300 nM
10 | CCOc1cc(N)nnc1C1CCN(C(=O)c2cc(OC)c(Oc3ccccc3)cn2)CC1 [Compound 85, [4-(6-Amino-4-ethoxy-pyridazin-3-yl)-piperidin-1-yl]-[4-methoxy-5-(phenoxy)-pyridin-2-yl]-methanone] | 320 nM
11 | CCCOc1cc(N)ncc1C1CCN(C(=O)c2cc(OC)c(Oc3ccccc3)cn2)CC1 [Compound 86, (6-Amino-4-propoxy-3′,4′,5′,6′-tetrahydro-2′H-[3,4′]bipyridinyl-1′-yl)-[5-(phenoxy)-4-methoxy-pyridin-2-yl]-methanone] | 350 nM
12 | CCOc1cc(N)nnc1C1CCN(C(=O)c2cc(OC)c(Oc3ccc(C(F)(F)F)cc3)cn2)CC1 [Compound 87] | 620 nM
13 | CCOc1cc(C(=O)N2CCC(c3ccc(N)nn3)CC2)ncc1Oc1ccc(F)cc1 [Compound 88, [4-(6-Amino-pyridazin-3-yl)-piperidin-1-yl]-[5-(4-fluoro-phenoxy)-4-ethoxy-pyridin-2-yl]-methanone] | 750 nM
14 | COc1cc(C(=O)N2CCC(c3nnc(N)cc3C)CC2)ncc1Oc1ccc(C(F)(F)F)cc1 [Compound 90, 6-(1-{4-Methoxy-5-[4-(trifluoromethyl)phenoxy]pyridine-2-carbonyl}piperidin-4-yl)-5-methylpyridazin-3-amine trifluoroacetic acid] | 364 nM
15 | COc1cc(N)nnc1C1CCN(C(=O)c2ccc(Oc3ccc(C(F)(F)F)cc3)cn2)CC1 [Compound 91, 5-Methoxy-6-(1-{5-[4-(trifluoromethyl)phenoxy]pyridine-2-carbonyl}piperidin-4-yl)pyridazin-3-amine trifluoroacetic acid] | 414 nM
16 | COc1cc(C(=O)N2CCC(c3cnc(N)cc3OC)CC2)ncc1OC[C@H]1C[C@H](C(F)(F)F)C1 [Compound 92, TFA salt of 4-Methoxy-5-[1-(4-methoxy-5-{[3-(trifluoromethyl)-cyclobutyl]methoxy}-pyridine-2-carbonyl)piperidin-4-yl]pyridin-2-amin] | 635 nM
17 | COc1cc(C(=O)N2CCC(c3cnc(N)cc3OC)CC2)ncc1OC[C@H]1C[C@@H](C(F)(F)F)C1 [Compound 93, TFA salt of 4-Methoxy-5-[1-(4-methoxy-5-{[3-(trifluoromethyl)-cyclobutyl]methoxy}-pyridine-2-carbonyl)piperidin-4-yl]pyridin-2-amin] | 595 nM
18 | COc1cc(C(=O)N2CCC(c3cnc(N)cc3OC)CC2)ncc1OCC1CCC1(F)F (stereo not drawn) [Compound 95, 5-(1-{5-[(2,2-Difluorocyclobutyl)-methoxy]-4-methoxy-pyridine-2-carbonyl}-piperidin-4-yl)-4-methoxypyridin-2-amine] | 445 nM
